Common to all, as to type: biochemical
One experiment has as its target T1, human Src enzyme (Homo sapiens, UniProt P12931).
T1 construct: purchased Carna Biosciences, Inc. 08-173
Put plainly: Src enzyme inhibitory activity (time-resolved fluorometry, biotinylated peptide phosphorylation). As to conditions: read-out: SRC_IC50. In outline:
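Compounds were tested for blocking tyrosine phosphorylation of a biotinylated peptide substrate by recombinant human Src. Phosphorylated product was quantified by time-resolved fluorometry using europium cryptate and XL665 conjugates, and IC50 was calculated against the compound-free control.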

A further experiment addresses T2, human Lck enzyme (Homo sapiens, UniProt P06239).
T2 construct: purchased Carna Biosciences, Inc. 08-170
The experiment is described as follows: Lck enzyme inhibitory activity (time-resolved fluorometry, biotinylated peptide phosphorylation). As to conditions: read-out: LCK_IC50. In short, it runs like this:
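Readout pairs a europium cryptate-labelled anti-phosphotyrosine antibody with XL665-streptavidin, measured by time-resolved fluorescence. IC50 derived from percent inhibition against untreated controls.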

A further experiment deals with T3, human Yes1 enzyme (Homo sapiens, UniProt P07947).
T3 construct: made in house
Put plainly: Yes1 enzyme inhibitory activity (time-resolved fluorometry, biotinylated peptide phosphorylation). The conditions noted are these: read-out: YES_IC50. In short, it runs like this: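 Inhibition was expressed against a compound-free control to give IC50, using TR-FRET read-out (Eu-cryptate anti-pTyr antibody, streptavidin-XL665).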

The mark [1] stands for this setting: biotinylated peptide phosphorylation.

The results in this text go back to patent US10479780B2, “Aminopyrazole derivatives” (Chugai Seiyaku Kabushiki Kaisha, priority 2015, dated 2019).

Structures are written as SMILES. pIC50: −log10 of the molar value. Like-named read-outs stand apart in the source and are kept apart here.

T2 sequence (P06239 whole entry): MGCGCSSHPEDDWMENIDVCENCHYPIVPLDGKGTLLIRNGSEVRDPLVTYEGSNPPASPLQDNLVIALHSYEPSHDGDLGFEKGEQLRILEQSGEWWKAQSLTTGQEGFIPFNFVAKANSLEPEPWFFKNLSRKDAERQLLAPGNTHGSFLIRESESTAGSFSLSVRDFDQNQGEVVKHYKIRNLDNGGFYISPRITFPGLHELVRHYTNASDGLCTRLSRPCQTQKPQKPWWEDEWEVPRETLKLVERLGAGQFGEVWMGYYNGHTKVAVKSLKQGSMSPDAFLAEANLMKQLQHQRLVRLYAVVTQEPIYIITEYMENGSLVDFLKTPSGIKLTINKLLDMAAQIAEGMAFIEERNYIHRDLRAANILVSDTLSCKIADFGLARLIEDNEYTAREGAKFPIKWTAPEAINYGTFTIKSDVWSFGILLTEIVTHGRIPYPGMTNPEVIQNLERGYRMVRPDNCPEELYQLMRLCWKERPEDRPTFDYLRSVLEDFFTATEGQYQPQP
T1 sequence (P12931 whole entry): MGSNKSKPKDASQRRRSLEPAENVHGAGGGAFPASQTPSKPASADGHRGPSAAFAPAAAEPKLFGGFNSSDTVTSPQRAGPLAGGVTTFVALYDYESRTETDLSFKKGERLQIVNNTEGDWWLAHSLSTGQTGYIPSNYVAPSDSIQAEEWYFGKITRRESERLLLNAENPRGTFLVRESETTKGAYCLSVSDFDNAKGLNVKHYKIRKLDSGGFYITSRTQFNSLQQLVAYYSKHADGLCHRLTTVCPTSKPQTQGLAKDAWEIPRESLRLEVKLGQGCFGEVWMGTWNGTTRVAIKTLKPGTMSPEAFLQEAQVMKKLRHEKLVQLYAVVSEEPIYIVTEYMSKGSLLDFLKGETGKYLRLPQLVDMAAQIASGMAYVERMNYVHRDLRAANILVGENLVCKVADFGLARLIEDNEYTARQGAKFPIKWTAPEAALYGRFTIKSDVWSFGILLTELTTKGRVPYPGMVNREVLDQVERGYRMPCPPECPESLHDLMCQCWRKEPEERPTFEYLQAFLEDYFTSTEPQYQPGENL
T3 sequence (P07947 whole entry): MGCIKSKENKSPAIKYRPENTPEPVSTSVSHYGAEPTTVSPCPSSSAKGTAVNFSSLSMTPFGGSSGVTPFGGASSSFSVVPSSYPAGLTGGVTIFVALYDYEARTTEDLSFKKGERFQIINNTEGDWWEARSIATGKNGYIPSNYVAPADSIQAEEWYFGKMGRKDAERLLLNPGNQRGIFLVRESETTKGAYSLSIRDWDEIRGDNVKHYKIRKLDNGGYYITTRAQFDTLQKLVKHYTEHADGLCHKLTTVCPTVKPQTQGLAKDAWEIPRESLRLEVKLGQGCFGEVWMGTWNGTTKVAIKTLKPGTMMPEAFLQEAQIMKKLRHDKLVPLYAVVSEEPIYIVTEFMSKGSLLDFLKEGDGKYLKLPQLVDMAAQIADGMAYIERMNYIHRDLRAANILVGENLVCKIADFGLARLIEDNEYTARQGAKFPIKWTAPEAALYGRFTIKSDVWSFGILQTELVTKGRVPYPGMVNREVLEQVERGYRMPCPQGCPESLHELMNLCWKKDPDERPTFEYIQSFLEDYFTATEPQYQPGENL

Consider `Cc1cc2cc(C(=O)c3cnn(-c4c(C)cc(Oc5ccccc5Cl)cc4F)c3N)[nH]c2cc1NS(C)(=O)=O` [Example 4-2-058, N-[2-[5-amino-1-[4-(2-chlorophenoxy)-2-fluoro-6-methylphenyl]pyrazole-4-carbonyl]-5-methyl-1H-indol-6-yl]methanesulfonamide], for which the pIC50 was 6.74 at human Src enzyme (setting [1]), 7.16 at human Lck enzyme (setting [1]) and 8.40 on human Yes1 enzyme (setting [1]).
Taken in the same sequence, the figures for `Cc1cc2cc(C(=O)c3cnn(-c4ccc(Oc5ccccc5F)cc4C)c3N)[nH]c2cc1NS(=O)(=O)c1cncc(F)c1` [Example 5-1-545, N-[2-[5-amino-1-[4-(2-fluorophenoxy)-2-methylphenyl]pyrazole-4-carbonyl]-5-methyl-1H-indol-6-yl]-5-fluoropyridine-3-sulfonamide] were 6.82, 7.66 and 8.51.
For `CCOc1cc2cc(C(=O)c3cnn(-c4ccc(Oc5ccccc5F)cc4C)c3N)[nH]c2cc1C1CCN(S(=O)(=O)C2CC2)CC1` [Example 5-1-071, [5-amino-1-[4-(2-fluorophenoxy)-2-methylphenyl]pyrazol-4-yl]-[6-(1-cyclopropylsulfonylpiperidin-4-yl)-5-ethoxy-1H-indol-2-yl]methanone], the pIC50 on human Src enzyme was 7.17; on human Lck enzyme, 7.21; on human Yes1 enzyme, 7.55.
For `Cc1cc2cc(C(=O)c3cnn(-c4ccc(Oc5ccccc5F)cc4C)c3N)[nH]c2cc1N1C(=O)NC(C)(C)C1=O` [Example 5-1-356, 3-[2-[5-amino-1-[4-(2-fluorophenoxy)-2-methylphenyl]pyrazole-4-carbonyl]-5-methyl-1H-indol-6-yl]-5,5-dimethylimidazolidine-2,4-dione] the same measures were 7.77, 8.36 and 9.06.
For `Cc1cc(Oc2ccccc2F)ccc1-n1ncc(C(=O)c2cc3cc(OCC(F)F)c(N4C(=O)NC5(CCN(Cc6ccccc6)CC5)C4=O)cc3[nH]2)c1N` [Example 5-1-277, 3-[2-[5-amino-1-[4-(2-fluorophenoxy)-2-methylphenyl]pyrazole-4-carbonyl]-5-(2,2-difluoroethoxy)-1H-indol-6-yl]-8-benzyl-1,3,8-triazaspiro[4.5]decane-2,4-dione] the same measures were 7.41, 7.92 and 8.82.
As to `Cc1cc(Oc2ccccc2F)ccc1-n1ncc(C(=O)c2cc3cc(OCC(F)F)c(NS(=O)(=O)c4cccnc4)cc3[nH]2)c1N` [Example 5-1-418, N-[2-[5-amino-1-[4-(2-fluorophenoxy)-2-methylphenyl]pyrazole-4-carbonyl]-5-(2,2-difluoroethoxy)-1H-indol-6-yl]pyridine-3-sulfonamide], the pIC50 on human Src enzyme (setting [1]) was 7.11; at human Lck enzyme (setting [1]) it was 7.68; on human Yes1 enzyme (setting [1]), 8.85.
As to `Cc1cc2cc(C(=O)c3cnn(-c4cnc(Oc5c(F)cccc5F)cc4C)c3N)[nH]c2cc1NS(=O)(=O)c1cccc(F)c1` [Example 5-1-551, N-[2-[5-amino-1-[6-(2,6-difluorophenoxy)-4-methylpyridin-3-yl]pyrazole-4-carbonyl]-5-methyl-1H-indol-6-yl]-3-fluorobenzenesulfonamide], the pIC50 on human Src enzyme (setting [1]) is 6.01; at human Lck enzyme (setting [1]), 6.62; at human Yes1 enzyme (setting [1]), 7.72.
Turning to `Cc1cc(Oc2c(F)cccc2F)ncc1-n1ncc(C(=O)c2cc3cc(OCC(F)F)c(NC4CN(S(C)(=O)=O)C4)cc3[nH]2)c1N` [Example 4-23-022, {5-amino-1-[6-(2,6-difluorophenoxy)-4-methylpyridin-3-yl]pyrazol-4-yl}-[5-(2,2-difluoroethoxy)-6-[(1-methylsulfonylazetidin-3-yl)amino]-1H-indol-2-yl]methanone], the values for the pIC50 on human Src enzyme (setting [1]), at human Lck enzyme (setting [1]) and on human Yes1 enzyme (setting [1]) were 7.62, 8.10 and 8.89, respectively.
